The target of one series is BCL-XL (Homo sapiens (Human), UniProt Q07817). In words: 1D 1H-NMR binding assay. Note: key: +++: Very Active; ++: Active; +: Mild; −: Weak. Conditions: 4-point-rating scale; compounds 200 μM, BCL-XL 25 μM. As to the method: By observing the aliphatic region of the spectra, binding could be readily detected due to chemical shift changes in active site methyl groups of Ile, Leu, Thr, Val or Ala (region between −0.8 and 0.3 ppm). All experiments were performed with a 600 MHz spectrometer Bruker Avance 600 equipped with four rf channels and z-axis pulse-field gradients.
BCL-XL, sequence (Q07817 whole entry): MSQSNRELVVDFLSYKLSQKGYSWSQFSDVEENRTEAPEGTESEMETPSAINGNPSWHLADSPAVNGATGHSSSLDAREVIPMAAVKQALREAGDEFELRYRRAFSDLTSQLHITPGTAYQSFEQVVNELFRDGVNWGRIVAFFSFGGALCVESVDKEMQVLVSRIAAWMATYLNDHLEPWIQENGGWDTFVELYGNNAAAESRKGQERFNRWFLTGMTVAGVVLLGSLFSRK

Series [1] in a line: Liver microsomal stability. Conditions: for Microsomal Stability (T = 1 hr): rat liver microsomes, 4 μM, 60 min; for microsomal stability compared to apogossypol: rat microsomal preparations.
Description: Pooled rat liver microsomes (BD Biosciences, #452701) were preincubated with test compounds at 37.5° C. for 5 min in the absence of NADPH. The reaction was initiated by addition of NADPH and then incubated under the same conditions. […] One aliquot (100 μL) of the incubation mixture was withdrawn at 0, 15, 30, and 60 min and combined immediately with 200 μL of ACN/MeOH containing an internal standard. After mixing, the sample was centrifuged at approximately 13,000 rpm for 12 min. The supernatant was transferred into an autosampler vial and the amount of test compound was quantified using the Shimadzu LCMS 2010EV mass spectrometer. The change of the AUC (area under the curve) of the parent compound as function of time was used as a measure of microsomal stability.
A further series in a line: Plasma stability. It is filed as in vitro ADME, rat. As to conditions: rat plasma, 1 h, 37.5° C. As to the method: A 20 μL aliquot of a 10 mM solution in DMSO of the test compound was added to […] of heparinized rat plasma (Lampire, P1-150N) to obtain a 100 μM final solution. The mixture was incubated for 1 h at 37.5° C. Aliquots of 100 μL were taken (0, 30 min, 1 h) and diluted with 200 μL of MeOH containing internal standard.

Series [2] is described as follows: PAMPA (parallel artificial membrane permeation assay). As to conditions: PAMPA, pH 7.2, 8 h. In general terms: The PAMPA barrier holds no transporters, so it reflects passive diffusion.
Description: PAMPA is parallel artificial membrane permeation assay. A 96-well microtiter plate (Millipore, # MSSACCEPTOR) was completely filled with aqueous buffer solution (pH 7.2) and covered with a microtiter filterplate (Millipore, # MAPBMN310). The hydrophobic filter material was impregnated with a 10% solution of hexadecane in hexane and the organic solvent was allowed to completely evaporate. Permeation studies were started by the transfer of 200 μL of a 100 μM test compound solution on top of the filterplate. In general phosphate buffer at pH 7.2 buffer was used. The maximum DMSO content of the stock solutions was <5%. In parallel, an equilibrium solution lacking a membrane was prepared using the exact concentrations and specifications but lacking the membrane. The concentrations of the acceptor and equilibrium solutions were determined using the Shimadzu LCMS-2010EV and AUC methods. The permeation of a compound through the membrane layer is described by the percentage permeation (% flux). The flux values were calculated considering the concentration of the acceptor compartment after 8 h and that of a reference well with the same concentration containing no membrane barrier.
Another series relates to H460 cell line. The series can be described thus: Cell viability, ATP-LITE assay. It is filed as cell-based, human. As to the method:
(§1) The activity of the compounds against human cancer cell lines (PC3ML, H460, H1299, RS11846) were assessed by using the ATP-LITE assay (PerkinElmer). All cells were seeded in either F12 or RPMI1640 medium with 5 mM L-glutamine supplemented with 5% fetal bovine serum (Mediatech Inc.), penicillin and streptomycin (Omega). For maintenance, cells were cultured in 5% FBS. Cells plated into 96 well plates at varying initial densities depending on doubling time. H460 and H1299 plated at 2000 cells/well, A549 and PC3 at 3000 cells/well, and RS118456S at 10,000 cells/well. Compounds were diluted to final concentrations with 0.1% DMSO. Prior to dispensing compounds onto cells, fresh 5% media was placed into wells. Administration of compounds occurred 24 hours after seeding into the fresh media. Cell viability was evaluated using ATP-LITE reagent (PerkinElmer) after 72 hours of treatment. Data were normalized to the DMSO control-treated cells using Prism version 5.01 (Graphpad Software).

The test system of another series is RS11846 cell line. In words: Apoptosis, Annexin V and propidium iodide assay. The series is classed as cell-based, human.
For another series, the system named is PC3ML cells. In words: Cell viability, ATP-LITE assay. It is filed as cell-based, human. As to conditions: 72 hours, ATP-LITE. As to the method:
as §1

A further series addresses GST-Mcl-1 (Homo sapiens (Human), UniProt Q07820). In words: Fluorescence polarization assay (FITC-Bim BH3 peptide). It is filed as binding. As to conditions: read-out: EC50 FPA Mcl-1. As to the method: After 30 min incubation at room temperature, the polarization values in millipolarization units were measured at excitation/emission wavelengths of 480/535 nm with a multilabel plate reader (PerkinElmer). IC50 was determined by fitting the experimental data to a sigmoidal dose-response nonlinear regression model (SigmaPlot 10.0.1, Systat Software, Inc., San Jose, Calif., USA). Data reported are mean of three independent experiments ±standard error (SE). […] Fluorescence polarization was measured after 10 min.
For orientation: In fluorescence polarisation assays a small probe gives low polarisation when free and higher when bound to something large.

In another series the target is GST-BCL-2 (Homo sapiens (Human), UniProt P10415). Described as above. Conditions: read-out: EC50 FPA BCL-2. The series is classed as binding. As to the method: After 30 min incubation at room temperature, the polarization values in millipolarization units were measured at excitation/emission wavelengths of 480/535 nm with a multilabel plate reader (PerkinElmer). IC50 was determined by fitting the experimental data to a sigmoidal dose-response nonlinear regression model (SigmaPlot 10.0.1, Systat Software, Inc., San Jose, Calif., USA). Data reported are mean of three independent experiments ±standard error (SE). Performance of BCL-2 and Mcl-1 FPA are similar. […] Fluorescence polarization was measured after 10 min.
GST-BCL-2, sequence (P10415 whole entry): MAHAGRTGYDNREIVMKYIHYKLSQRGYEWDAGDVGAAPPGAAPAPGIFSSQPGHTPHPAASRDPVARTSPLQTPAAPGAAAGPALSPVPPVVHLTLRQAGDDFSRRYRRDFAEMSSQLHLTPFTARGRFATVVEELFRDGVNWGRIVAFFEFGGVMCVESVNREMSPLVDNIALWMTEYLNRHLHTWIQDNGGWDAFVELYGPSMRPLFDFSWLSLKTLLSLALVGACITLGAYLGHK

The next series concerns the target GST-BCL-XL ΔTM protein (Homo sapiens (Human), UniProt Q07817). The series can be described thus: Competitive fluorescence polarization assay (FITC-Bak BH3 peptide). The series is classed as binding. As to conditions: read-out: FPA IC50 (BCL-XL). As to the method:
For competitive binding assays, 100 nM GST-BCL-XL ΔTM protein was preincubated with the tested compound at varying concentrations in 47.5 μL PBS (pH=7.4) in 96-well black plates at room temperature for 10 min, then 2.5 μL of 100 nM FITC-labeled Bak BH3 peptide was added to produce a final volume of 50 μL. The wild-type and mutant Bak BH3 peptides were included in each assay plate as positive and negative controls, respectively.
IC50 was determined by fitting the experimental data to a sigmoidal dose-response nonlinear regression model (SigmaPlot 10.0.1, Systat Software, Inc., San Jose, Calif., USA). Data reported are mean of three independent experiments ±standard error (SE). […] Fluorescence polarization was measured after 10 min.

Read-outs that look alike come from different tables or passages of the source.

GST-BCL-XL ΔTM protein, sequence (Q07817 1-209): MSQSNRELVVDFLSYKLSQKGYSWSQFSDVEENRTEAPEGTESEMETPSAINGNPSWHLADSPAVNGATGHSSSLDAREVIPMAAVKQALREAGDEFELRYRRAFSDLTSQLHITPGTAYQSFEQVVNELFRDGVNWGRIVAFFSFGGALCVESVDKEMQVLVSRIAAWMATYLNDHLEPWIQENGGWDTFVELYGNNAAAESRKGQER
GST-Mcl-1, sequence (Q07820 whole entry): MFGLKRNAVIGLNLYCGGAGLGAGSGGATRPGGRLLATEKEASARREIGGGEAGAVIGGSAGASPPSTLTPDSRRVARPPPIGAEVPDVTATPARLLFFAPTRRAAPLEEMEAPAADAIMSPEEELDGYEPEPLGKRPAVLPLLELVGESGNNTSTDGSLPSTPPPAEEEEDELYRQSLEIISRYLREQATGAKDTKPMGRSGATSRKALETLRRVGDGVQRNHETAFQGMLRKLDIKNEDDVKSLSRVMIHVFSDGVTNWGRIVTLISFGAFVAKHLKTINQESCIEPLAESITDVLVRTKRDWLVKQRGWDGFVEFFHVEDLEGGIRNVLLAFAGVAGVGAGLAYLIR
Description for RS11846 cell line: The apoptotic activity of the compounds against RS11846 cells was assessed by staining with Annexin V- and propidium iodide (PI). Lymphoma cell line, RS11846, was cultured in RPMI 1640 medium (Mediatech Inc., Herndon, Va. 20171) containing 10% fetal bovine serum (Mediatech Inc., Herndon, Va. 20171) and Penicillin/Streptomycin (Mediatech Inc., Herndon, Va. 20171). […] The percentage of viable cells was determined by FITC-Annexin V- and propidium iodide (PI)-labeling, using an Apoptosis Detection kit (BioVision Inc.), and analyzing stained cells by flow cytometry (FACSort; Bectin-Dickinson, Inc.; Mountain View, Calif.). Cells that were annexin-V-negative and PI-negative were considered viable.

Consider `Cc1cc2cc(O)c(O)cc2c(O)c1-c1c(C)cc2cc(O)c(O)cc2c1O` [Compound II, 3,3′-dimethyl-2,2′-binaphthyl-1,1′,6,6′,7,7′-hexaol], for which the “1D 1H-NMR Binding Assay (BCL-XL)” value on BCL-XL was “+”.

As to `Cc1cc2c(C(=O)C(C)C)c(O)c(O)cc2c(O)c1-c1c(C)cc2c(C(=O)C(C)C)c(O)c(O)cc2c1O` [Compound III, 1,1′-(1,1′6,6′,7,7′-hexahydroxy-3,3′-dimethyl-2,2′-binaphthyl-5,5′-diyl)bis(2-methylpropan-1-one)], the “1D 1H-NMR Binding Assay (BCL-XL)” value on BCL-XL is “++”.

For the compound `Cc1cc2c(C(=O)c3ccc(-c4ccccc4)cc3)c(O)c(O)cc2c(O)c1-c1c(C)cc2c(C(=O)c3ccc(-c4ccccc4)cc3)c(O)c(O)cc2c1O` [Compound IX, (1,1′,6,6′,7,7′-hexahydroxy-3,3′-dimethyl-2,2′-binaphthyl-5,51-diyl)bis(biphenyl-4-ylmethanone)], on BCL-XL, the “1D 1H-NMR Binding Assay (BCL-XL)” value was “−”.

As to `CCCCC(CC)CC(=O)c1c(O)c(O)cc2c(O)c(-c3c(C)cc4c(C(=O)CC(CC)CCCC)c(O)c(O)cc4c3O)c(C)cc12` (centres unmarked) [Compound V, 1,1′-(1,1′,6,6′,7,7′-hexahydroxy-3,3′-dimethyl-2,2′-binaphthyl-5,5′-diyl)bis(3-ethylheptan-1-one)], at BCL-XL, the “1D 1H-NMR Binding Assay (BCL-XL)” value is on record as “+”.

`Cc1cc2c(C(=O)C3CCCC3)c(O)c(O)cc2c(O)c1-c1c(C)cc2c(C(=O)C3CCCC3)c(O)c(O)cc2c1O` [Compound VI, (1,1′,6,6′,7,7′-hexahydroxy-3,3′-dimethyl-2,2′-binaphthyl-5,5′-diyl)bis(cyclopentylmethanone)]: in [1], the “Microsomal Stability (T = 1 hr)” value was 27% and the “microsomal stability compared to apogossypol” value is on record as “degraded faster than apogossypol”. The “Plasma Stability (T = 1 hr)” value in the series “Plasma stability” came out at 79%. For the same compound, the “Cell Permeability” value in series [2] is on record as “Low”. Also, the “1D 1H-NMR Binding Assay (BCL-XL)” value on BCL-XL is recorded as “+”.

As usually defined, the EC50 is the concentration at which the effect is half-maximal. Take `Cc1cc2c(C(=O)c3ccccc3)c(O)c(O)cc2c(O)c1-c1c(C)cc2c(C(=O)c3ccccc3)c(O)c(O)cc2c1O` [Compound VII, (1,1′,6,6′,7,7′-hexahydroxy-3,3′-dimethyl-2,2′-binaphthyl-5,5′-diyl)bis(phenylmethanone)]: the concentration for a half-maximal effect (EC50) in the series on H460 cell line (72 hours, ATP-LITE) was 0.31 µM. In addition, the “1D 1H-NMR Binding Assay (BCL-XL)” value at BCL-XL is recorded as “+”.

For `Cc1cc2c(C(=O)c3ccc(C(C)(C)C)cc3)c(O)c(O)cc2c(O)c1-c1c(C)cc2c(C(=O)c3ccc(C(C)(C)C)cc3)c(O)c(O)cc2c1O` [Compound X, (1,1′,6,6′,7,7′-hexahydroxy-3,3′-dimethyl-2,2′-binaphthyl-5,5′-diyl)bis((4-tert-butylphenyl)methanone)], the “1D 1H-NMR Binding Assay (BCL-XL)” value on BCL-XL is recorded as “−”.

For the compound `Cc1cc2c(C(=O)c3ccc(C(F)(F)F)cc3)c(O)c(O)cc2c(O)c1-c1c(C)cc2c(C(=O)c3ccc(C(F)(F)F)cc3)c(O)c(O)cc2c1O` [Compound XI, (1,1′,6,6′,7,7′-hexahydroxy-3,3′-dimethyl-2,2′-binaphthyl-5,5′-diyl)bis((4-(trifluoromethyl)phenyl)methanone)], the EC50 with RS11846 cell line (1-2 days; read-out: RS11846 EC50 (Annexin V- and propidium iodide assay)) amounted to 3.8 µM. The “1D 1H-NMR Binding Assay (BCL-XL)” value on BCL-XL is listed as “+”.

Turning to `Cc1ccc(CC(=O)c2c(O)c(O)cc3c(O)c(-c4c(C)cc5c(C(=O)Cc6ccc(C)cc6)c(O)c(O)cc5c4O)c(C)cc23)cc1` [Compound XII, 1,1′-(1,1′,6,6′,7,7′-hexahydroxy-3,3′-dimethyl-2,2′-binaphthyl-5,5′-diyl)bis(2-p-tolylethanone)], the concentration giving a half-maximal response (EC50) in the series on RS11846 cell line (read-out: RS11846 EC50 (Annexin V- and propidium iodide assay); 1-2 days) was found to be 3 µM; in the series on PC3ML cells it was 2.5 µM; at GST-Mcl-1, 1.1 µM; at GST-BCL-2, 0.78 µM. In the series with H460 cell line, the “times more potent than apogossypol, H460 EC50” value is reported as 4-5 times. Moreover, the “Plasma Stability (T = 1 hr)” value in “Plasma stability” was determined as 72%. Moreover, in series [2], the “Cell Permeability” value is “Low and Medium”.

On to `Cc1cc2c(C(=O)Cc3cccc(Br)c3)c(O)c(O)cc2c(O)c1-c1c(C)cc2c(C(=O)Cc3cccc(Br)c3)c(O)c(O)cc2c1O` [Compound XIII, 1,1′-(1,1′,6,6′,7,7′-hexahydroxy-3,3′-dimethyl-2,2′-binaphthyl-5,5′-diyl)bis(2-(3-bromophenyl)ethanone)], for which the “1D 1H-NMR Binding Assay (BCL-XL)” value at BCL-XL is given as “++”.

On to `Cc1cc2c(C(=O)CC3CCCCC3)c(O)c(O)cc2c(O)c1-c1c(C)cc2c(C(=O)CC3CCCCC3)c(O)c(O)cc2c1O` [Compound XV, 1,1′-(1,1′,6,6′,7,7′-hexahydroxy-3,3′-dimethyl-2,2′-binaphthyl-5,5′-diyl)bis(2-cyclohexylethanone)], for which the “1D 1H-NMR Binding Assay (BCL-XL)” value on BCL-XL is recorded as “++”.

With `Cc1cc2c(C(=O)CCc3ccc(F)cc3)c(O)c(O)cc2c(O)c1-c1c(C)cc2c(C(=O)CCc3ccc(F)cc3)c(O)c(O)cc2c1O` [Compound XVI, 1,1′-(1,1′,6,6′,7,7′-hexahydroxy-3,3′-dimethyl-2,2′-binaphthyl-5,5′-diyl)bis(3-(4-fluorophenyl)propan-1-one)], the “1D 1H-NMR Binding Assay (BCL-XL)” value at BCL-XL is on record as “+”.

The term IC50 denotes the concentration that gives 50% inhibition. As to `Cc1cc2c(C(=O)c3nc4ccccc4s3)c(O)c(O)cc2c(O)c1-c1c(C)cc2c(C(=O)c3nc4ccccc4s3)c(O)c(O)cc2c1O` [Compound XVII, (1,1′,6,6′,7,7′-hexahydroxy-3,3′-dimethyl-2,2′-binaphthyl-5,5′-diyl)bis(benzo[d]thiazol-2-ylmethanone)], the IC50 at GST-BCL-XL ΔTM protein was found to be 0.39 µM. Besides, the “Microsomal Stability (T = 1 hr)” value in series [1] is on record as 68%. Also, the “Plasma Stability (T = 1 hr)” value in “Plasma stability” was 90%. For the same compound, the “Cell Permeability” value in [2] is on record as “Medium”. Besides, the “1D 1H-NMR Binding Assay (BCL-XL)” value on BCL-XL was “++”.

On to `Cc1cc2c(C(=O)C(C)(C)C)c(O)c(O)cc2c(O)c1-c1c(C)cc2c(C(=O)C(C)(C)C)c(O)c(O)cc2c1O` [Compound XVIII, 1,1′-(1,1′,6,6′,7,7′-hexahydroxy-3,3′-dimethyl-2,2′-binaphthyl-5,5′-diyl)bis(2,2-dimethylpropan-1-one)], for which, in series [1], the “Microsomal Stability (T = 1 hr)” value is listed as 30% and the “microsomal stability compared to apogossypol” value was “degraded faster than apogossypol”. Besides, the “Plasma Stability (T = 1 hr)” value in the series “Plasma stability” amounted to 90%. The “Cell Permeability” value in series [2] is on record as “Medium”. For the same compound, at BCL-XL, the “1D 1H-NMR Binding Assay (BCL-XL)” value is “++”.

As for `CCCCC(=O)c1c(O)c(O)cc2c(O)c(-c3c(C)cc4c(C(=O)CCCC)c(O)c(O)cc4c3O)c(C)cc12` [Compound XX, 1,1′-(1,1′,6,6′,7,7′-hexahydroxy-3,3′-dimethyl-2,2′-binaphthyl-5,5′-diyl)dipentan-1-one], at BCL-XL, the “1D 1H-NMR Binding Assay (BCL-XL)” value is given as “+”.

The values are drawn from patent publication US9115061B2, “Naphthalene-based inhibitors of anti-apoptotic proteins” (BURNHAM INSTITUTE FOR MEDICAL RESEARCH, priority 2007, dated 2015).
